# Measured values reported in US20260224590A1 (priority 2023, published 2026).
# Where two headings read alike, the source gives them in different places.
# Assays:
# 5-HT2A receptor [1] = target: T1, 5-HT2A receptor (Homo sapiens, UniProt P28223); experiment: 5-HT2A receptor downstream β-arrestin2 recruitment in HEK-293T cells; type: cell-based; design: expressed in transfected cells; host or cells: HEK-293T (ATCC, CRL-11268); conditions: for β-arrestin2 signaling agonistic activity (% in parentheses): HEK-293T, percentage printed in parentheses beside the nM value, not defined; for signaling pathway selectivity at the 5-HT2A receptor (β-arrestin2 versus G protein): statement on Table 2
# T1 sequence (P28223 whole entry): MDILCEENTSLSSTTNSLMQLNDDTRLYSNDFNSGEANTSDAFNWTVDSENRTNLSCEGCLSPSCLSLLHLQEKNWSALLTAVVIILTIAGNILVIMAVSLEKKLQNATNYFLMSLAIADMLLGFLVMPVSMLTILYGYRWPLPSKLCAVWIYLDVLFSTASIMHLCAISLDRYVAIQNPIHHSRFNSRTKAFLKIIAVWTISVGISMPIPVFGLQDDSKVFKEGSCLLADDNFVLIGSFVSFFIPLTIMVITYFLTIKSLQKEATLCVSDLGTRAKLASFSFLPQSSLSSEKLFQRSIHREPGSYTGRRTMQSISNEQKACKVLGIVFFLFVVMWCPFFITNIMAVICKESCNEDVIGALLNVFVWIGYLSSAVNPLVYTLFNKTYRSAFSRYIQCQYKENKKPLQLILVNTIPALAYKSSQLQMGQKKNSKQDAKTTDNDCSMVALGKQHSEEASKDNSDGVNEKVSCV
# Experimental: (§1) On the second day, the confluent cells from a 6 cm culture dish were digested and reseeded into a 96-well plate at a volume of 100 μL of culture medium per well. On the third day, the drugs were added for testing. The 96-well plate was taken out from the cell incubator to decant the culture medium. 40 μL of the substrate coelenterazine 400a (final concentration 5 μM) was added to each well, and then 20 μL of different drugs were added sequentially from left to right, ensuring that the final concentration of the drug decreased gradually from bottom to top, with two replicates per treatment. Finally, the prepared samples were loaded on a plate reader for signal quantification. The readout values reflected the recruitment of β-arrestin2 to the membrane or the dissociation of G protein trimer. The former indicated the degree of activation of the downstream β-arrestin2 signaling pathway mediated by the 5-HT2A receptor, and the latter indicated the degree of activation of the downstream G protein signaling pathway mediated by the 5-HT2A receptor.
# 5-HT2A receptor [2] = target: T1, 5-HT2A receptor; experiment: radioligand competitive binding assay, affinity for the 5-HT2A receptor; conditions: [3H]-LSD competition, 293T membranes transiently expressing 5-HT2A receptor
# C57BL/6J mice = experiment: head-twitch response in mice (hallucinogenic effects); type: in vivo; conditions: intraperitoneal injection, first 30 minutes, all doses tested
# Text: Method: The head-twitch response in mice was detected via oscillatory signals to characterize hallucinogenic effects. Mice (strain C57BL/6J, purchased from Shanghai Lingchang Biotech Co., Ltd.) were anesthetized with 2% isoflurane. A small portion of the scalp was removed from the center of the dorsal cranium. A custom-made small neodymium magnet (4 mm×4 mm×2 mm) was attached to the center of the dorsal cranium using dental resin. The magnet N-S poles were kept parallel to the dorsoventral aspect of the implant. The mice were allowed to recover for 1 week before testing. To record precise head movements, the mice were placed in a glass beaker with a diameter of 12 cm, surrounded by 150 turns of #30 enameled copper wire. The output signal from the coil was recorded using a PowerLab/4SP instrument installed with LabChart V8.1.16 software. Coil voltage was amplified, low-pass filtered at 10 kHz to remove radio frequency interference, and sampled at 40 kHz. For the detection of head-twitch response in mice, LabChart data were processed with a digital band-pass filter at 40 to 200 Hz. The head-twitch response in mice was identified by searching for sinusoidal wavelets that met the following criteria: 1) containing more than two bipolar peaks; 2) amplitude exceeding background noise level; 3) duration less than 120 milliseconds. 1 hour prior to the test, the mice were transferred to the test room for acclimatization. Subsequently, the mice were placed in the beaker for 30 minutes, and baseline head-twitch response values were recorded. Immediately after baseline recording, the mice were injected intraperitoneally with the test compound, and head-twitch response values were recorded for 1 to 2 hours post-dose, depending on the compound used. Statistical values were taken from the first 30 minutes.
# [3] = test system: C57BL/6 mice, corticosterone in drinking water; experiment: tail suspension test after 21 days of corticosterone exposure; type: in vivo; conditions: corticosterone model
# Experimental: Antidepressant efficacy test method: Male C57BL/6 mice (8 weeks old, purchased from Shanghai Lingchang Biotech Co., Ltd.) were administered a solution of corticosterone in their drinking water at a concentration of 25 μg/mL using drinking water bottles for 21 days. Mice were maintained on a 12-hour light cycle. Corticosterone-containing drinking water was refreshed every other day for the first two weeks, and gradually replaced with corticosterone-free drinking water every two days for the last week. […] TST procedure: mice in the control group and the administration group were suspended by their tails with tape for 6 minutes, and their behavior was recorded by a video camera. The immobility time during the last 4 minutes was manually timed and assessed by an observer who was unaware of the treatment conditions.
# in vivo = conditions: male, C57, mouse, plasma, ip, 5 mg/kg
# Experimental: (§3) The concentration of the compound in mouse plasma was determined using LC-MS/MS, and the relevant pharmacokinetic parameters were calculated to investigate the pharmacokinetic characteristics of the compound in mice.
# (§4) Experimental design: 60 male C57 mice (purchased from Suzhou JOINN Laboratory Animal Co., Ltd.) were randomly divided into groups based on weight, with 3 mice per group. The mice were fasted with water ad libitum for 12 to 14 hours one day before test-article administration and fed 4 hours after the administration. The route of administration was intraperitoneal (IP), with a dosing concentration of 1 mg/mL, and a solvent formulation of 10% DMSO+90% saline.
# (§5) Sample collection: 0.1 mL of blood was collected from the orbit under isoflurane anesthesia before and after test-article administration, transferred to EDTA K2 tubes, and placed on an ice bath. The samples were centrifuged at 5000 rpm for 10 minutes at 4° C., and the plasma was collected. […] Prior to analysis, all plasma samples were stored at −80° C.
# (§6) Data processing: Drug concentrations in plasma and brain tissues were measured using LC-MS (API4000QTRAP triple quadrupole tandem mass spectrometer, equipped with an electrospray ionization source (ESI)). The data collection and control system software utilized was Analyst 1.5.1 (Applied Biosystems). The sample peak integration in the spectrum was conducted automatically; the ratio of the sample peak area to the internal standard peak area was used as an indicator to perform regression with the concentration of the sample. Regression method: Linear regression with a weighting factor of 1/X^2. Pharmacokinetic parameters were analyzed using a non-compartmental model in WinNonlin Professional v6.3 (Pharsight, USA). Cmax is the measured maximum plasma concentration, the area under the plasma concentration-time curve (AUC(0→t)) was calculated by the trapezoidal method, and Tmax is the time to reach peak plasma concentration after administration. Experimental data are presented as “Mean±Standard Deviation” (Mean±SD, n≥3) or “Mean” (n=2).
# 5-HT2A receptor [4] = target: T1, 5-HT2A receptor; experiment: 5-HT2A receptor downstream G protein (Gq) signaling, G protein trimer dissociation in HEK-293T cells; type: cell-based; design: expressed in transfected cells; host or cells: HEK-293T (ATCC, CRL-11268); conditions: percentage printed in parentheses beside the nM value, not defined
# Experimental: as §1
# dopamine D2 receptor = target: T2, dopamine D2 receptor (Homo sapiens, UniProt P14416); experiment: radioligand competitive binding assay, affinity for the dopamine D2 receptor
# T2 construct: expressed in transfected cells; host or cells: HEK-293T (ATCC, CRL-11268)
# T2 sequence (P14416 whole entry, species assumed): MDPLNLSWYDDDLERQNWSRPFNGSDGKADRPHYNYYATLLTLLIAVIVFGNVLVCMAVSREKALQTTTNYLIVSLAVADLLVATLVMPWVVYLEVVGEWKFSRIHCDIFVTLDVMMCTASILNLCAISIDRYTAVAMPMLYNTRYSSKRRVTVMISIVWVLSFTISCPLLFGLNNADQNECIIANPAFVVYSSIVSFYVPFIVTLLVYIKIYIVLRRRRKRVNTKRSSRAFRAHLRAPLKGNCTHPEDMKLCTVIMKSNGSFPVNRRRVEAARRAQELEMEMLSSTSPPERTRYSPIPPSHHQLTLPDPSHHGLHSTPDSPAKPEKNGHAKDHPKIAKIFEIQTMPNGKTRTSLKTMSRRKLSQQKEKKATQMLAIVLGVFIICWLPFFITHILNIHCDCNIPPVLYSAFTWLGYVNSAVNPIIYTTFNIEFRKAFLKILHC
# Experimental: Method: The affinity of the compounds of the present disclosure for the dopamine D2 receptor was determined using a radioligand competitive binding assay as follows. In the first step, a cell membrane component containing dopamine D2 receptor was prepared. […] 48 hours post-transfection, the 10 cm culture dish was taken out from the cell incubator and the cultured cells had expressed the dopamine D2 receptor. The culture medium was aspirated using a vacuum pump, and 3 mL of lysis buffer was added to each culture dish. The cells were then placed in a cold room at 4° C. for 10 minutes. After the cells were detached, they were transferred to a 15 mL centrifuge tube and centrifuged at 1500 rpm for 5 minutes at 4° C., and the supernatant was discarded. The cell pellet was transferred to a tissue homogenizer, and 3 mL of lysis buffer was added. Sufficient grinding was applied to break the cells. The cell suspension was then equally aliquoted into several Eppendorf tubes and centrifuged at 12000 rpm for 5 minutes at 4° C., and the supernatant was discarded. The resulting precipitate was the cell membrane component containing the dopamine D2 receptor. […] The machine readout value reflected the amount of [3H]-Methylspiperone bound on the membrane, and after further data processing, the affinity Ki values of different compounds for the dopamine D2 receptor were obtained.
# [5] = test system: C57BL/6J wild-type mice, acute restraint stress; experiment: tail suspension test (TST) after acute restraint stress; type: in vivo; conditions: 5 h acute restraint stress, intraperitoneal injection, test after 30 minutes
# Experimental: (§2) Method: Acute restraint stress (ARS) is frequently used to induce a depressive state in mice. The forced swim test (FST) and tail suspension test (TST) are currently the most commonly used models for inferring “depression-like” behaviors. C57BL/6J wild-type mice (over 8 weeks old, purchased from Shanghai Lingchang Biotech Co., Ltd.) were restrained individually in a rodent restraint device for 5 hours. The mice were restricted from all body movements, but only minimal pain was introduced. During the ARS experiment, the mice were deprived of both food and water. After 5 hours of restraint, a separate group of mice was released and immediately injected intraperitoneally with the test compound. After 30 minutes of recovery, the behavioral changes of the mice were assessed through the Forced Swim Test (FST) or Tail Suspension Test (TST). […] All mice were forced to swim for 6 minutes, and their behavior was recorded using a video camera. The immobility time during the last 4 minutes of the test was recorded. […] In the TST, mice in the control group and those subjected to restraint stress were suspended by their tails with tape for 6 minutes, and their behavior was recorded using a video camera. The immobility time during the last 4 minutes was manually timed and assessed by an observer who was unaware of the treatment conditions.
# [6] = test system: C57BL/6J wild-type mice, acute restraint stress; experiment: forced swim test (FST) after acute restraint stress; type: in vivo; conditions: 5 h acute restraint stress, intraperitoneal injection, test after 30 minutes
# Experimental: as §2
# [7] = 10 mg/kg IP, male C57 mice
# Experimental: as §3, §4, §5, §6
# [8] = depressive episodes associated with bipolar I or II disorder; Calabrese et al. 2021; cited from earlier work
# [9] = Ki, affinity for the 5-HT2A receptor
# [10] = read-out: Ki, affinity for the 5-HT2A receptor
smiles,measurement,setting,value
"COc1ccccc1CCN1CCC2C(C1)c1cccc3c1N2CCCN3C (single isomer, unassigned) [I-13]",β-arrestin2 signaling agonistic activity (% in parentheses),5-HT2A receptor [1],(51.4%)
same,signaling pathway selectivity at the 5-HT2A receptor (β-arrestin2 versus G protein),5-HT2A receptor [1],"selectively activate the recruitment of β-arrestin2 mediated by the 5-HT2A receptor, without activating the G protein signaling pathway"
"COc1ccccc1CCCN1CCC2C(C1)c1cccc3c1N2CCCN3C (single isomer, unassigned) [I-14]",Ki,5-HT2A receptor [2]; [9],28 nM
"COc1ccccc1CCCN1CCC2C(C1)c1cccc3c1N2CCCN3C (single isomer, unassigned) [I-15]",Ki,5-HT2A receptor [2]; [9],7 nM
same,β-arrestin2 signaling agonistic activity (% in parentheses),5-HT2A receptor [1],(24.3%)
same,signaling pathway selectivity at the 5-HT2A receptor (β-arrestin2 versus G protein),5-HT2A receptor [1],"selectively activate the recruitment of β-arrestin2 mediated by the 5-HT2A receptor, without activating the G protein signaling pathway"
"COc1ccccc1CCCN1CCC2C(C1)c1cccc3c1N2CCC3 (single isomer, unassigned) [I-18]",Ki,5-HT2A receptor [2]; [9],57 nM
"COc1ccccc1CCCN1CCC2C(C1)c1cccc3c1N2CCC3 (single isomer, unassigned) [I-19]",β-arrestin2 signaling agonistic activity (% in parentheses),5-HT2A receptor [1],(59.4%)
same,signaling pathway selectivity at the 5-HT2A receptor (β-arrestin2 versus G protein),5-HT2A receptor [1],"selectively activate the recruitment of β-arrestin2 mediated by the 5-HT2A receptor, without activating the G protein signaling pathway"
"COc1ccccc1CCCN1CCC2C(C1)c1cccc3c1N2CCO3 (single isomer, unassigned) [I-23]",hallucinogenic effects (head-twitch response),C57BL/6J mice,did not induce hallucinogenic effects
same,antidepressant effect in the mouse tail suspension test,"[3]; 10 mg/kg single injection, after 7 days",remained significant
same,antidepressant effect in the mouse tail suspension test,"[3]; 10 mg/kg single injection, after 14 days",remained significant
same,antidepressant effect in the mouse tail suspension test,[3]; one day after a single administration,significant antidepressant effect
same,AUC0-inf,in vivo,540 ng·h/mL
same,β-arrestin2 signaling agonistic activity (% in parentheses),5-HT2A receptor [1],(51.6%)
"CN1CCN2c3c(cccc31)[C@@H]1CN(Cc3ccccc3O)CC[C@@H]12 [I-2, 2-(((6bR,10aS)-3-methyl-2,3,6b,9,10,10a-hexahydro-1H-pyrido[3′,4′:4,5]pyrrolo[1,2,3-de]quinoxalin-8 (7H)-yl)methyl)phenol]",Ki,5-HT2A receptor [2]; [10],525 nM
same,Gq signaling agonistic activity (% in parentheses),5-HT2A receptor [4],(65.3%)
same,β-arrestin2 signaling agonistic activity (% in parentheses),5-HT2A receptor [1],(68.4%)
COc1ccccc1CCN1CC[C@H]2[C@@H](C1)c1cccc3c1N2CCN3C [I-3],"affinity for the dopamine receptor, in words",dopamine D2 receptor,weak affinity
same,antidepressant effect in the TST (immobility time),[5],significant antidepressant effect
same,antidepressant effect in the FST (immobility time),[6],significant antidepressant effect
same,hallucinogenic effects (head-twitch response),C57BL/6J mice,did not induce hallucinogenic effects
same,Ki,5-HT2A receptor [2]; [10],17 nM
same,Gq signaling agonistic activity (% in parentheses),5-HT2A receptor [4],(20.2%)
same,β-arrestin2 signaling agonistic activity (% in parentheses),5-HT2A receptor [1],(39.0%)
COc1cccc(CCN2CC[C@H]3[C@@H](C2)c2cccc4c2N3CCN4C)c1 [I-4],Ki,5-HT2A receptor [2]; [10],88 nM
same,Gq signaling agonistic activity (% in parentheses),5-HT2A receptor [4],(13.7%)
same,β-arrestin2 signaling agonistic activity (% in parentheses),5-HT2A receptor [1],(44.2%)
COc1ccc(CCN2CC[C@H]3[C@@H](C2)c2cccc4c2N3CCN4C)cc1 [I-5],Ki,5-HT2A receptor [2]; [10],126 nM
same,β-arrestin2 signaling agonistic activity (% in parentheses),5-HT2A receptor [1],(3.2%)
COc1cccc(CCN2CC[C@H]3[C@@H](C2)c2cccc4c2N3CCN4C)c1OC [I-6],Ki,5-HT2A receptor [2]; [10],5240 nM
"CN1CCN2c3c(cccc31)[C@@H]1CN(CCc3ccccc3O)CC[C@@H]12 [I-9, 2-(2-((6bR,10aS)-3-methyl-2,3,6b,9,10,10a-hexahydro-1H-pyrido[3′,4′:4,5]pyrrolo[1,2,3-de]quinoxalin-8 (7H)-yl)ethyl)phenol]",β-arrestin2 signaling agonistic activity (% in parentheses),5-HT2A receptor [1],(14.4%)
COc1ccccc1CCCN1CC[C@H]2[C@@H](C1)c1cccc3c1N2CCN3C [I-10],"affinity for the dopamine receptor, in words",dopamine D2 receptor,weak affinity
same,antidepressant effect in the TST (immobility time),[5],significant antidepressant effect
same,antidepressant effect in the FST (immobility time),[6],significant antidepressant effect
same,hallucinogenic effects (head-twitch response),C57BL/6J mice,did not induce hallucinogenic effects
same,AUC0-inf,[7]; brain,1346 h · ng · mL^−1 or ng · g^−1
same,AUC0-t,[7]; brain,1335 h · ng · mL^−1 or ng · g^−1
same,AUMC0-inf,[7]; brain,2054 h · h · ng · mL^−1 or ng · g^−
same,AUMC0-t,[7]; brain,1979 h · h · ng · mL^−1 or ng · g^−
same,Cmax,[7]; brain,566 ng/g
same,MRT,[7]; brain,91.8 min
same,T1/2,[7]; brain,48.1 min
same,tmax,[7]; brain,30 min
same,AUC0-inf,[7]; plasma,582 ng·h/mL
same,AUC0-t,[7]; plasma,576 ng·h/mL
same,Cmax,[7]; plasma,225 ng/mL
same,MRT,[7]; plasma,127 min
same,T1/2,[7]; plasma,63.6 min
same,tmax,[7]; plasma,4.98 min
same,Ki,5-HT2A receptor [2]; [10],13 nM
same,β-arrestin2 signaling agonistic activity (% in parentheses),5-HT2A receptor [1],(12.7%)
"CN1CCN2c3c(cccc31)[C@@H]1CN(CCCc3ccccc3O)CC[C@@H]12 [I-11, 2-(3-((6bR,10aS)-3-methyl-2,3,6b,9,10,10a-hexahydro-1H-pyrido[3′,4′:4,5]pyrrolo[1,2,3-de]quinoxalin-8 (7H)-yl)propyl)phenol]",Gq signaling agonistic activity (% in parentheses),5-HT2A receptor [4],(9.7%)
same,β-arrestin2 signaling agonistic activity (% in parentheses),5-HT2A receptor [1],(36.8%)
COc1ccccc1CCCN1CC[C@@H]2[C@H](C1)c1cccc3c1N2CCCS3 [I-27],β-arrestin2 signaling agonistic activity (% in parentheses),5-HT2A receptor [1],(35.7%)
same,signaling pathway selectivity at the 5-HT2A receptor (β-arrestin2 versus G protein),5-HT2A receptor [1],"selectively activate the recruitment of β-arrestin2 mediated by the 5-HT2A receptor, without activating the G protein signaling pathway"
CN1CCN2c3c(cccc31)[C@@H]1CN(CCCC(=O)c3ccc(F)cc3)CC[C@@H]12 [lumateperone],patient response rate,[8],51.1%
